A word on the EC50: it is the concentration needed to bring the measured effect to its halfway point.

The assay can be described thus: ET-1 Assay: Fibroblasts (primary human lung and dermal, HFL-1, 3T3 etc) are seeded in 96-well plates at ~15000 cells/well and serum starved for 0-48 hours. After media exchange, compounds serially diluted in DMSO are added to the cells. After a brief incubation of ~30 min, stimulants (TGFb, serum, LPA etc) are added followed by further incubation for 16-48 hours. Media is then harvested and stored frozen in plate format for later endothelin-1 (ET-1) determination by ELISA. Toxicity measurements are made using the ATPlite kit (Perkin-Elmer). ET-1 is quantified using an ELISA kit (R&D Systems). The amount of ET-1 produced in the assay wells are back-calculated using the ELISA standard. The ability of a compound to inhibit ET-1 production is typically analyzed by fitting dose-response curves to a 4-parameter logistic function to obtain an EC50 value. The settings on record: HFL1.
As to `Cc1cc(=O)n(-c2ccc(OC(F)(F)F)cc2)cc1-c1ccc2oc(=O)[nH]c2c1`, the EC50 was less than 50 µM.

For `Cc1ccc(=S)n(-c2cccc(F)c2)c1`, the 50% effective concentration (EC50) was greater than 200 µM.

Turning to `O=c1ccc(-c2ccc(F)cc2)cn1CCc1ccccc1`, the concentration giving a half-maximal response (EC50) result was “in the range around 125 µM”.

`CC(=O)c1ccc(=O)n(-c2cccc(F)c2)c1`: the half-maximal effective concentration (EC50) was greater than 200 µM.

As for `COc1cccc(-n2cc(Br)ccc2=O)c1`, the EC50 is greater than 200 µM.

As to `Cn1cc(-c2cn(-c3ccc(OC(F)(F)F)cc3)c(=O)cc2NC(=O)OCc2ccccc2)cn1`, the concentration for a half-maximal effect (EC50) result is “in the range around 125 µM”.

As to `Cn1cc(-c2c[nH]c(=O)c3[nH]ccc23)cn1`, the EC50 is less than 50 µM.

For the molecule `Cc1nc2c(-c3cnn(C)c3)cn(-c3ccc(OC(F)(F)F)cc3)c(=O)c2s1`, the EC50 is less than 50 µM.

Regarding `Cc1cc(=O)n(-c2ccc(OC(F)(F)F)cc2)cc1-c1ccc2ccn(C)c2c1`, the EC50 is less than 50 µM.

In the case of `Cc1cc(=O)n(-c2ccc(OC(F)(F)F)cc2)cc1-c1ccc2c(c1)oc(=O)n2CCO`, the 50% effective concentration (EC50) entry is “in the range around 125 µM”.

On to `Cc1cc(=O)n(-c2cccc(OC(F)(F)F)c2)cc1-c1ccccc1`, for which the EC50 was less than 50 µM.

`COc1cc(-n2cc(-c3cn[nH]c3)c(C)cc2=O)cc(OC)c1OC`: the EC50 is greater than 200 µM.

For the molecule `O=c1ccc(Br)cn1-c1cccc(F)c1`, the concentration giving a half-maximal response (EC50) was greater than 200 µM.

For `Cc1cc(=O)n(-c2ccc(OC(F)(F)F)cc2)cc1-c1ccccc1F`, the half-maximal effective concentration (EC50) was less than 50 µM.

Turning to `Cn1cc(-c2cn(-c3ccc(OC(F)(F)F)cc3)c(=O)c3c2nnn3CCF)cn1`, the EC50 entry is “in the range around 125 µM”.

Regarding `CC(=O)Nc1cccc(-n2cc(C(C)=O)ccc2=O)c1`, the EC50 is greater than 200 µM.

On to `CC(=O)Nc1cccc(-n2cc(-c3ccc(F)cc3)c(C)cc2=O)c1`, for which the EC50 is greater than 200 µM.

For `CC(C)C(=O)Nc1cc(=O)n(-c2ccc(OC(F)(F)F)cc2)cc1-c1ccc(F)cc1`, the EC50 is greater than 200 µM.

For `O=c1cc(OCc2ccccc2)c(-c2ccc(F)cc2)cn1-c1ccc(OC(F)(F)F)cc1`, the EC50 was greater than 200 µM.

Take `Cc1n[nH]c(C)c1-c1ccc(=O)n(-c2ccc(Cl)cc2)c1`: the EC50 is greater than 200 µM.

Take `Cc1cc(=O)n(-c2ccc(C(F)(F)F)cc2)cc1-c1ccccc1`: the concentration giving a half-maximal response (EC50) was less than 50 µM.

On to `CCOc1ccc(-n2cc(-c3cnn(C)c3)c(OCCOCCOC)cc2=O)c(C)c1`, for which the EC50 entry is “in the range around 125 µM”.

`Cc1cc(=O)[nH]cc1-c1cccc2c1OC(F)(F)O2`: the EC50 is less than 50 µM.

For `CCOc1ccc(-n2cc(-c3cnn(C)c3)c3nn(CC)nc3c2=O)c(C)c1`, the EC50 entry was “in the range around 125 µM”.

Regarding `Cc1cc(=O)n(-c2ccc(OC(F)(F)F)cc2)cc1-c1ccc2ncsc2c1`, the EC50 result is “in the range around 125 µM”.

Regarding `Cc1cc(=O)n(-c2ccc3ocnc3c2)cc1-c1cnn(C)c1`, the EC50 is greater than 200 µM.

As to `O=c1c2cccnc2c(-c2cn[nH]c2)cn1-c1ccc(OC(F)(F)F)cc1`, the EC50 was greater than 200 µM.

Turning to `Cc1cc(=O)n(-c2ccc(OC(F)(F)F)cc2)cc1-c1ccc2nccn2c1`, the EC50 result is “in the range around 125 µM”.

For `Cn1cc(-c2cn(-c3ccc(OC(F)(F)F)cc3)c(=O)cc2OCCN2CCCC2)cn1`, the half-maximal effective concentration (EC50) result is “in the range around 125 µM”.

As for `CCn1ccc2c(-c3cnn(CCO)c3)cn(-c3ccc(OC(F)(F)F)cc3)c(=O)c21`, the half-maximal effective concentration (EC50) was less than 50 µM.

Consider `Cc1cc(=O)n(-c2ccc(OC(F)(F)F)cc2)cc1-c1cccc2c1OC(F)(F)O2`, for which the concentration for a half-maximal effect (EC50) is less than 50 µM.

`CCOc1ccc(-n2cc(-c3cnn(C)c3)c(NCc3ccc(OCCOC)cc3)cc2=O)c(C)c1`: the concentration giving a half-maximal response (EC50) is less than 50 µM.

Regarding `O=C(Nc1cc(=O)n(-c2ccc(OC(F)(F)F)cc2)cc1-c1ccc(F)cc1)Oc1ccccc1`, the EC50 was greater than 200 µM.

With `Cn1cc(-c2cn(-c3ccc(OC(F)(F)F)cc3)c(=O)c3ncn(Cc4ccccc4)c23)cn1`, the concentration for a half-maximal effect (EC50) was greater than 200 µM.

On to `Cc1cc(=O)n(-c2ccc(Cl)cc2)cc1-c1ccc2scnc2c1`, for which the concentration for a half-maximal effect (EC50) entry was “in the range around 125 µM”.

Consider `Cc1cc(=O)n(-c2ccc(OC(C)C)cc2C)cc1-c1cnn(C)c1`, for which the EC50 was greater than 200 µM.

Take `Cc1cc(=O)n(-c2ccc(OC(F)(F)F)cc2)cc1-c1cccc2c1OCCO2`: the concentration giving a half-maximal response (EC50) was less than 50 µM.

Consider `Cn1cc(-c2cnc(=O)n(-c3ccccc3)c2)cn1`, for which the EC50 was greater than 200 µM.

Turning to `CCOc1ccc(-n2cc(-c3ccc(F)cc3)c(C)cc2=O)c(C)c1`, the half-maximal effective concentration (EC50) result was “in the range around 125 µM”.

As for `O=c1ccc(C2CCCCC2)cn1-c1ccccc1`, the half-maximal effective concentration (EC50) entry is “in the range around 125 µM”.

For `Cc1cc(-c2cnn(C)c2)cn(-c2ccc(OC(F)(F)F)cc2)c1=O`, the EC50 result was “in the range around 125 µM”.

Regarding `CN1C(=O)COc2c(-c3cnn(C)c3)cn(-c3ccc(OC(F)(F)F)cc3)c(=O)c21`, the EC50 is greater than 200 µM.

With `CCn1nc2c(-c3cnn(C)c3)cn(-c3ccc(OC(F)(F)F)cc3)c(=O)c2n1`, the 50% effective concentration (EC50) is less than 50 µM.

On to `Cn1cc(-c2cn(-c3ccc(OC(F)(F)F)cc3)c(=O)cc2N)cn1`, for which the EC50 is greater than 200 µM.

`O=c1ccc(C2CCC2)cn1-c1ccccc1`: the EC50 was greater than 200 µM.

For `CC(C)n1cc(-c2ccc(=O)n(-c3ccccc3)c2)cn1`, the EC50 was greater than 200 µM.

Turning to `O=c1ccc(-c2ccccc2)cn1-c1cncnc1`, the EC50 is greater than 200 µM.

Consider `CCOc1ccc(-n2cc(-c3cnn(C)c3)c(Oc3ccccc3)cc2=O)c(C)c1`, for which the concentration giving a half-maximal response (EC50) is less than 50 µM.

Consider `Cn1cc(-c2cn(-c3ccc(OC(F)(F)F)cc3)c(=O)cc2OCCN2CCCC2=O)cn1`, for which the EC50 was greater than 200 µM.

Take `O=c1ccc(-c2cccc(Cl)c2)cn1-c1ccccc1Cl`: the concentration for a half-maximal effect (EC50) is less than 50 µM.

As for `CCOc1ccc(-n2cc(-c3cnn(C)c3)c(NCc3ccccc3)cc2=O)c(C)c1`, the concentration for a half-maximal effect (EC50) is less than 50 µM.

Turning to `O=C(c1ccccc1)n1cc(-c2ccc(=O)n(-c3ccccc3)c2)cn1`, the half-maximal effective concentration (EC50) is greater than 200 µM.

Regarding `CN1CCC(Oc2cc(=O)n(-c3ccc(OC(F)(F)F)cc3)cc2-c2ccc(F)cc2)CC1`, the half-maximal effective concentration (EC50) was less than 50 µM.

In the case of `N#Cc1ccc(-n2cc(-c3cn[nH]c3)c3cc[nH]c3c2=O)cc1`, the 50% effective concentration (EC50) entry is “in the range around 125 µM”.

On to `CCn1cnc2c(-c3cn[nH]c3)cn(-c3ccc(OC(F)(F)F)cc3)c(=O)c21`, for which the EC50 is less than 50 µM.

Regarding `Cc1nc2c(=O)n(-c3ccc(OC(F)(F)F)cc3)cc(-c3ccc(F)cc3)c2o1`, the EC50 was greater than 200 µM.

With `CCn1nnc2c(-c3ccc(F)cc3)cn(-c3ccc(OC(F)(F)F)cc3)c(=O)c21`, the 50% effective concentration (EC50) was less than 50 µM.

Regarding `Cc1cc(=O)n(-c2ccc(OC(F)(F)F)cc2)cc1-c1cccc2ncsc12`, the EC50 was less than 50 µM.

Take `CCOc1ccc(-n2cc(-c3ccc4ocnc4c3)c(C)cc2=O)c(C)c1`: the EC50 entry was “in the range around 125 µM”.

Consider `O=c1ccc(-c2ccccc2)cn1-c1ccccc1Cl`, for which the EC50 result was “in the range around 125 µM”.

On to `CCn1cc(-c2cn(-c3ccc(OC(F)(F)F)cc3)c(=O)c3c2ncn3CC)cn1`, for which the EC50 was less than 50 µM.

Consider `Cc1ccc(=O)n(-c2ccc(OC(F)(F)F)cc2)n1`, for which the EC50 was less than 50 µM.

Consider `O=c1c2[nH]ccc2c(-c2cn[nH]c2)cn1-c1ccc(OC(F)(F)F)cc1`, for which the EC50 is less than 50 µM.

In the case of `O=c1ccc(-c2ccccc2)cn1-c1ccc(F)cc1`, the concentration for a half-maximal effect (EC50) entry is “in the range around 125 µM”.

Take `COc1ccc(-n2cc(-c3cccc(Cl)c3)ccc2=O)cc1`: the concentration for a half-maximal effect (EC50) was less than 50 µM.

Regarding `CCn1nc2c(-c3ccc(F)cc3)cn(-c3ccc(OC(F)(F)F)cc3)c(=O)c2n1`, the EC50 is greater than 200 µM.

`Cn1cc(-c2cn(-c3ccc(OC(F)(F)F)cc3)c(=O)cc2NCc2cncnc2)cn1`: the EC50 was less than 50 µM.

`CCC(=O)Nc1cc(=O)n(-c2ccc(OC(F)(F)F)cc2)cc1-c1ccc(F)cc1`: the EC50 was greater than 200 µM.

Turning to `Cc1cc(=O)n(-c2cccc(NC(N)=O)c2)cc1-c1cnn(C)c1`, the concentration for a half-maximal effect (EC50) is less than 50 µM.

On to `Cc1cc(=O)n(-c2ccccc2NC(N)=O)cc1-c1ccc(F)cc1`, for which the half-maximal effective concentration (EC50) is less than 50 µM.

For the molecule `Cn1cc(-c2cn(-c3ccc(OC(F)(F)F)cc3)c(=O)c3c2CCCC3)cn1`, the EC50 is less than 50 µM.

In the case of `O=c1ccc(Br)cn1-c1ccc(OC(F)(F)F)cc1`, the EC50 is greater than 200 µM.

Regarding `O=c1ccc(-c2cn[nH]c2)cn1-c1ccc(Cl)cc1`, the EC50 is greater than 200 µM.

Take `CC(=O)Nc1cccc(-n2cc(-c3cn[nH]c3)c(C)cc2=O)c1`: the concentration giving a half-maximal response (EC50) was greater than 200 µM.

As to `O=c1ccc(-c2cccc(Cl)c2)cn1-c1ccccc1`, the half-maximal effective concentration (EC50) result is “in the range around 125 µM”.

In the case of `COc1cccc(-n2cc(C(C)=O)ccc2=O)c1`, the half-maximal effective concentration (EC50) was greater than 200 µM.

In the case of `Cn1cc(-c2cn(-c3ccc(OC(F)(F)F)cc3)c(=O)cc2NCc2cnccn2)cn1`, the half-maximal effective concentration (EC50) entry is “in the range around 125 µM”.

With `CN1CCN(CCOc2cc(=O)n(-c3ccc(OC(F)(F)F)cc3)cc2-c2cnn(C)c2)CC1`, the half-maximal effective concentration (EC50) entry is “in the range around 125 µM”.

For `CCn1c(=O)oc2ccc(-c3cn(-c4ccc(OC(F)(F)F)cc4)c(=O)cc3C)cc21`, the EC50 is greater than 200 µM.

Regarding `COCCOc1ccc(-n2cc(-c3cnn(C)c3)c(C)cc2=O)cc1`, the 50% effective concentration (EC50) is greater than 200 µM.

For `CCOCCn1ccc2c(-c3cn[nH]c3)cn(-c3ccc(OC(F)(F)F)cc3)c(=O)c21`, the EC50 is less than 50 µM.

As to `O=c1ccc(-c2cn[nH]c2)cn1-c1cccc(C(F)(F)F)c1`, the 50% effective concentration (EC50) is greater than 200 µM.

On to `Cc1cc(=O)n(-c2ccc(OC(F)(F)F)cc2)cc1-c1cccc(F)c1`, for which the half-maximal effective concentration (EC50) is less than 50 µM.

Consider `Cn1cc(-c2cn(-c3ccc(OC(F)(F)F)cc3)c(=O)c3c2NCCC3)cn1`, for which the EC50 is greater than 200 µM.

In the case of `Cn1cc(-c2cn(-c3ccc(OC(F)(F)F)cc3)c(=O)c3[nH]ncc23)cn1`, the EC50 was greater than 200 µM.

Regarding `CCCNC(=O)c1cc(=O)n(-c2ccc(OC(F)(F)F)cc2)cc1-c1cnn(C)c1`, the concentration giving a half-maximal response (EC50) was greater than 200 µM.

Turning to `CCCC(=O)Nc1cc(=O)n(-c2ccc(OC(F)(F)F)cc2)cc1-c1ccc(F)cc1`, the EC50 is greater than 200 µM.

As to `COCCn1ccc2c(-c3cnn(C)c3)cn(-c3ccc(OC(F)(F)F)cc3)c(=O)c21`, the concentration for a half-maximal effect (EC50) is less than 50 µM.

On to `COc1ccc(-n2cc(-c3ccc(S(N)(=O)=O)cc3)ccc2=O)cc1`, for which the concentration giving a half-maximal response (EC50) is greater than 200 µM.
